According to patent publication US9802974B2, “Synthesis of diverse glycosylphosphatidylinositol glycans from Toxoplasma gondii and their application as vaccines and diagnostics” (Max-Planck-Gesellschaft zur Förderung der Wissenschaften …, priority 2012, dated 2017):
“Also recorded” adds a separate entry of the source.

System: serum antibodies raised against the conjugate consisting of compound 3 covalently linked to CRM197
Assay: Carbohydrate microarray analysis of serum from Balb/c mice immunized with the conjugate of compound 3 and CRM197
Type: binding
Details: pooled serum of Balb/c mice immunized with compound 3-CRM197 conjugate; compounds printed at 1 mM; FIG. 3
Experimental: FIG. 3: left side: Analysis of pooled serum that was obtained 4 weeks after 1st immunization of Balb/c mice with a conjugate consisting of CRM197 covalently linked to compound 3; right side: Printing pattern: all compounds were printed in a 3×3 pattern and in a concentration of 1 mM; left, upper corner: compound 5; left lower corner: compound 3; right, upper corner: compound 4; right lower corner: (α-D-Mannopyranosyl)-(1→2)-(α-D-mannopyranosyl)-(1→2)-(α-D-mannopyranosyl)-(1→6)-(α-D-mannopyranosyl)-(1→4)-(2-amino-2-deoxy-α-D-glucopyranosyl)-(1→6)-1-O-(6-thiohexyl phosphono)-D-myo-inositol (Chem. Eur. J. 2005, 11, 2493).
Three female BALB/c mice were immunized s.c. with 35 μg conjugate, prepared as described in example 11a, in Freund's complete adjuvant. […] After the second immunization, serum was collected and the antibody titer (total IgG) was determined by microarray six weeks after the first immunization.

Compound	binding of serum antibodies to the glycan printed on the microarray
6-O-(aminoethyl phosphono)-α-D-mannopyranosyl-(1→2)-α-D-mannopyranosyl-(1→6)-4-O-(α-D-glucopyranosyl-(1→4)-2-deoxy-2-acetamido-β-D-galactopyranosyl)-α-D-manno-pyranosyl-(1→4)-2-amino-2-deoxy-α-D-glucopyranosyl-(1→6)-1-O-(thiohexyl phosphono)-D-myo-inositol [compound 4]	not
N[C@H]1[C@@H](O[C@@H]2[C@@H](O)[C@H](O)[C@@H](O)[C@@H](O)[C@H]2OP(=O)(O)OCCCCCCS)O[C@H](CO)[C@@H](O[C@H]2O[C@H](CO[C@H]3O[C@H](CO)[C@@H](O)[C@H](O)[C@@H]3O[C@H]3O[C@H](CO)[C@@H](O)[C@H](O)[C@@H]3O[C@H]3O[C@H](CO)[C@@H](O)[C@H](O)[C@@H]3O)[C@@H](O)[C@H](O)[C@@H]2O)[C@@H]1O [(α-D-Mannopyranosyl)-(1→2)-(α-D-mannopyranosyl)-(1→2)-(α-D-mannopyranosyl)-(1→6)-(α-D-mannopyranosyl)-(1→4)-(2-amino-2-deoxy-α-D-glucopyranosyl)-(1→6)-1-O-(6-thiohexylphosphono)-D-myo-inositol, reference compound]	not
CC(=O)NC1C(O)[C@@H](O)C(CO)O[C@H]1O[C@@H]1C(CO[C@H]2OC(CO)[C@@H](O)C(O)C2O[C@H]2OC(COP(=O)(O)OCCN)[C@@H](O)C(O)C2O)O[C@H](O[C@@H]2C(CO)O[C@H](O[C@@H]3C(O)C(O)[C@@H](O)C(O)C3OP(=O)(O)OCCCCCCS)C(N)C2O)C(O)C1O (stereo partly drawn) [compound 3, 6-O-(aminoethylphosphono)-α-D-mannopyranosyl-(1→2)-α-D-mannopyranosyl-(1→6)-4-O-(2-deoxy-2-acetamido-β-D-galactopyranosyl)-α-D-mannopyranosyl-(1→4)-2-amino-2-deoxy-α-D-glucopyranosyl-(1→6)-1-O-(thiohexylphosphono)-D-myo-inositol]	specifically evoke a binding; also recorded: bound
CC(=O)NC1C(O)[C@@H](O)C(CO)O[C@H]1O[C@@H]1C(CO[C@H]2OC(CO)[C@@H](O)C(O)C2O[C@H]2OC(COP(=O)(O)OCCN)[C@@H](O)C(O)C2O)O[C@H](O[C@@H]2C(CO)O[C@H](O[C@@H]3C(O)C(O)[C@@H](O)C(O)C3OP(=O)(O)OCCCCCCS)C(N)C2O)C(OP(=O)(O)OCCN)C1O (stereo partly drawn) [compound 5, 6-O-(aminoethylphosphono)-α-D-mannopyranosyl-(1→2)-α-D-mannopyranosyl-(1→6)-2-O-(aminoethylphosphono)-4-O-(2-deoxy-2-acetamido-β-D-galactopyranosyl)-α-D-mannopyranosyl-(1→4)-2-amino-2-deoxy-α-D-glucopyranosyl-(1→6)-1-O-(thiohexylphosphono)-D-myo-inositol]	not and did not show cross reactivity
